Assay [1] concerns IL-1β secretion by RAW264.7 cells. The assay is described as follows: ELISA, RANKL-induced secretion of IL-1β. The following applies: RAW264.7, ELISA, FIG. 6. The class given is cell-based. On the procedure: (§1) Under RANKL stimulation, mononuclear RAW264.7 cells can secrete pro-inflammatory cytokines such as TNF-α, IL-1, IL-6, etc. ELISA is used to measure that KMUP-1 influences RANKL to induce the secretion of pro-inflammatory cytokines. […] 10^5 cells were plated per well in 24-well plates. […] After 24 hours reaction, the reaction fluid was centrifuged (13,000 rpm, 4° C., 20 minutes), and then the supernatant was tasted by ELISA kit (R&D system and eBioscience™) to detect the amount of TNF-α, IL-1β, IL-6, and IL-10. The experimental process is followed with the instructions of the kit.
On the technique in general: ELISA stands for enzyme-linked immunosorbent assay.

Assay [2] deals with IL-6 secretion by RAW264.7 cells. The experiment in a line: ELISA, RANKL-induced secretion of IL-6. It counts as cell-based. Conditions: RAW264.7, ELISA, FIG. 7(A). As to the method: as §1
In assay [3] the test system is p38 phosphorylation in RAW264.7 cells. The experiment in a line: Western blot, phosphorylation of p38 induced by RANKL. Conditions: 7.5 μM and 10 μM, RANKL 15 minutes, FIG. 11. The class given is cell-based. On the procedure:
MAP kinases including ERK, JNK and p38 are stimulated by RANKL to be phosphorylized and further influence the down-stream key transcription factors which induce the differentiation of osteoclast-like cells such as c-Fos, NFATc1, etc. Before estimating the drug effect, 10 ng/ml RANKL are used to induce the phosphorylation of ERK, JNK and p38 at different time points. […] It is shown that KMUP-1 can reduce the activation of MAP kinases induced by RANKL. […] The proteins were collected by scraping and were centrifuged (13,000 rpm, 4° C., 30 minutes). The supernatant was stored in an eppendorf in −80° C. • c) Concentrations of the proteins were examined by Bio-Red DC Protein Assay. After knowing the concentrations, the proteins were diluted to specific concentrations by adding ddH2O. One forth volume of the diluted proteins of sample buffer was added into the diluted proteins and was put in boiled water for 5 min and then was chilled on ice for 5 minutes. After short time centrifugation, the diluted proteins could be injected into wells of a gel. The gel was run at 100 V for 10 minutes until the proteins were driven to the intersection between a loading gel and a running gel. Then, the voltage was swopped to 200 V for 40 minutes. • d) A PVDF membrane was immersed in Methanol for 2 minutes. After two washes in ddH2O, the membrane was immersed in transfer buffer for 15 minutes. […]

For assay [4], the system named is MMP-2 enzyme activity of RAW264.7 cells. The assay is described as follows: Gelatin zymography, enzyme activity of MMP-2 induced by RANKL. The class given is cell-based. Conditions: 10 μM, RANKL 24 hours, FIG. 20. As to the method: (§2) KMUP-1 influences there major up-stream signal transduction pathways which are related to RANK/RANKL. Western blot is used to estimate the amount of matrix metalloproteinase (MMP)-2 and MMP-9 which are related to the dissolution of osteoclast-like cells, and the enzyme activity of MMP-2 and MMP-9 are estimated via Gelatin Zymography. […] After 24 hours reaction, the reaction fluid was centrifuged (13,000 rpm, 4° C., 20 minutes), and then the supernatant was stored in −80° C. • b) 10% gel preparation. 10 mg gelatin was added by 1 ml ddH2O and then was heated in water bath until the solution was clear. • c) Concentrations of the proteins were examined by Bio-Red DC Protein Assay. After knowing the concentrations, the proteins were diluted to specific concentrations by adding ddH2O. One forth volume of the diluted proteins of sample buffer was added into the diluted proteins. After shaking, the diluted proteins could be added into wells of the gel. Subsequently, 1× running buffer was added with the gel, and then the gel was run at 100 V for 10 minutes until the proteins were driven to the intersection between a loading gel and a running gel. Then, the voltage was swopped to 200 V for 60 minutes. • d) After electrophoresis, the loading gel was discarded, and the left gel was washed by TritonX-100 buffer for 30 minutes in room temperature twice. […]

For assay [5], the system named is MMP-9 enzyme activity of RAW264.7 cells. The assay is described as follows: Gelatin zymography, enzyme activity of MMP-9 induced by RANKL. It counts as cell-based. The following applies: 10 μM, RANKL 24 hours, FIG. 21. As to the method:
as §2

Assay [6] relates to MIA-induced knee arthritis in Wistar male rats. The experiment in a line: Monosodium iodoacetate (MIA) induced knee arthritis rat model. The class given is in vivo.

Consider `Cn1c(=O)c2c(ncn2CCN2CCN(c3ccccc3Cl)CC2)n(C)c1=O` [KMUP-1, 7-[2-[4-(2-Chlorophenyl)piperazin-1-yl]ethyl] theophylline], for which the “RANKL-induced secretion of IL-1” value in assay [1] is recorded as “presents a dose dependent inhibition phenomenon”. For the same molecule, the “RANKL-induced secretion of IL-6” value in assay [2] is recorded as “presents a dose dependent inhibition phenomenon”. Further, the “phosphorylation of p38 induced by RANKL” value in assay [3] was “can efficiently inhibit the phosphorylation of ERK, JNK and p38 induced by RANKL”. In addition, in assay [4], the “enzyme activity of MMP-2 induced by RANKL” value was “can reduce the enzyme activity of MMP-2 and MMP-9”. Further, in assay [5], the “enzyme activity of MMP-9 induced by RANKL” value was “can reduce the enzyme activity of MMP-2 and MMP-9”. Moreover, the “holes and defects of cartilage tissues (H&E slices)” value in assay [6] (oral 1 mg/kg) was “the holes and defects from the damages of the MIA still exist”; in assay [6] (oral 2.5 mg/kg), “become much better”; in assay [6] (oral 5 mg/kg) it was “close to the recovery condition of the sham group”. Also, the “inflammatory cell infiltrations (H&E slices)” value in assay [6] (oral 1 mg/kg) was “there are still many inflammatory cell infiltrations”; in assay [6] (oral 2.5 mg/kg) it was “the inflammatory cell infiltrations become less”; in assay [6] (oral 5 mg/kg), “there are still some inflammatory cell infiltrations”. Besides, in assay [6] (oral 2.5 mg/kg and 5 mg/kg, one week before and one week after MIA), the “damages of articular cartilage caused by MIA (gross appearance)” value was “can reduce the damages caused by the MIA”. Moreover, the “mast cell infiltrations (toluidine blue slices)” value in assay [6] (oral 1, 2.5, 5 mg/kg) is reported as “the mast cell infiltrations present a trend of reducing according to the higher dose”.
